Data taken from PMC7515829, “HKDC1 C-terminal based peptides inhibit extranodal natural killer/T-cell lymphoma by modulation of mitochondrial function and EBV suppression” (Leukemia, 2020).

Legend:
SNK6 cells [1] = experiment: Peptide delivery efficiency, 125I-labeled uptake assay; type: in vitro ADME, human; details: 125I label on tyrosine, 0.5 µM peptide, 6-h incubation, media and cells counted by liquid scintillation counter, mean, n = 4 (Fig S1)
Excerpt: We investigated the potential role of HKDC1-based peptides in ENKTL cells that were isolated from the MNCs of ENKTL patients or SNK6 cell line. Three different kinds of HKDC1-based targeting peptides, including the last 15 aa at either the N-terminal (HKN15) or C-terminal (HKC15), or the last eight aa at the C-terminal (HKC8) were selected; four different kinds of cell-penetrating sequences were employed to deliver the HKDC1-based peptides, including Antp (a 16 penetrating residue long sequence from the Drosophila antennapedia-homeodomain), penetration-accelerating segment, TAT (HIV-1 TAT sequence), and Tf (the Tf receptor (TfR) internalization sequence) sequences. All of the aa with the D-configuration (marked as D) were synthesized as retro-inverso peptides. […] We then evaluated the toxic effect of two peptides (including Tf-D-HKC15 and Tf-D-HKC8) on different kinds of primary and cancer cell lines (see details in Table 2). […] We also evaluated the peptide delivery efficiency using ^125I-labeled uptake assay for both Tf-D-HKC8 and Tf-D-HKC15 peptides. […]
Figure S1. […] 0.5µM each of peptide was incubated with SNK6 cells for 6 hours, then both culture media and SNK6 cells were harvested for radioactivity assay using Liquid Scintillation Counter. n=4. *, P<0.05, vs Intracellular group. Results were expressed as mean ± SEM.

SNK6 cells [2] = experiment: ROS formation (CM-H2DCFDA); type: cell-based, human; details: 0.5 µM peptide, 6 h, compared with CTL group, n = 5 (Fig. 3a)
Description: Measurement of ROS generation. Treated cells were seeded in a 24-well plate and incubated with 10μM CM-H2DCFDA (Invitrogen) for 45 min at 37°C, and then the intracellular formation of reactive oxygen species (ROS) was measured at excitation/emission wavelengths of 485/530nm using a FLx800 microplate fluorescence reader (Bio-Tek). The data was normalized as arbitrary units (8, 11).

ABCB1 = experiment: mRNA level by qPCR in SNK6 cells; type: cell-based, human; details: 0.5 µM peptide, 6 h, vs CTL, n = 4 (Fig. 3f)
Description: Fig. 3 Peptide for the last eight aa of HKDC1 at the C-terminal (Tf-D-HKC8) inhibits EBV replication and P-gp expression through ROS generation and DNA damage in ENKTL cells. SNK6 cells were treated with control (CTL), Tf-D-HKN15, Tf-D-HKC15, or Tf-D-HKC8 peptide (0.5 µM) for 6 h and the cells were used for biomedical analysis. a ROS formation, n = 5. b 3-nitrotyrosine (3-NT) formation, n = 5. c 8-OHdG formation, n = 5. d Quantitation of γH2AX formation, n = 5. e Representative western blotting bands for d. f mRNA level by qPCR for BZLF1, BMRF1, and ABCB1, n = 4. g Protein quantitation for Zta, EA-D, and P-gp, n = 5. h Representative pictures of western blots for g. i EBV viral genomes/cell by qPCR, n = 4. *P < 0.05, vs CTL group; ^¶P < 0.05, vs Tf-D-HKC15 group. Results were expressed as mean ± SEM.

SNK6 cells [3] = experiment: Intracellular ATP level (luciferin/luciferase); type: cell-based, human; details: 0.5 µM peptide, 6 h, vs CTL, n = 5 (Fig. 4g)
Description: Measurement of mitochondrial function. Intracellular ATP level was determined using the luciferin/luciferase-induced bioluminescence system. An ATP standard curve was generated at concentrations of 10^-12-10^-3M, and intracellular ATP levels were calculated and expressed as nmol/mg protein. Mitochondrial membrane potential (Δψm) was measured using TMRE (from Molecular Probes T-669) staining. A 600μM T-669 stock solution was prepared using DMSO. Cells were grown on coverslips and immersed in 600nM TMRE for 20 min at 37°C to load them with dye. The labeling medium was then aspirated and the cells were immersed in 150nM TMRE to maintain an equal distribution of the fluorophore. The coverslips were mounted with live cells onto confocal microscopes to image the cells using 548nm excitation/573nm emission filters, and the intensity of TMRE fluorescence was measured using Image J software. Data from 10-20 cells were collected for each experimental condition and mean values of fluorescence intensity ± SEM were calculated (12).

EBV Zta = experiment: Protein level in xenograft tumor tissue (western blot); type: in vivo; details: SNK6 xenograft, Balb/c athymic nude mice; intratumoral 50 µM peptide, 20 µl per tumor, every 2 days from day ~18; tissue day 50; western blot vs CTL; n = 5
Excerpt: (§1) Biomedical analysis of tumor tissues.

EBV EA-D = experiment: as above; type: in vivo, mouse; details: SNK6 xenograft, nude mice; intratumoral 50 µM peptide every 2 days from day ~18; tissue day 50; western blot vs CTL; n = 5
Excerpt: as §1

P-gp = experiment: as above; type: in vivo, mouse; details: SNK6 xenograft, nude mice; intratumoral 50 µM peptide every 2 days from day ~18; tissue day 50; western blot vs CTL; n = 5
Excerpt: as §1

SNK6 xenograft [4] = experiment: Superoxide anion release from tumor tissue; type: in vivo, mouse; details: nude mice, intratumoral 50 µM peptide every 2 days from day ~18, tissue day 50, chemiluminescence vs CTL, n = 5
Description: In vivo superoxide release analysis. Superoxide anion (O2^.-) release from tumor tissues was determined using a luminol-EDTA-Fe enhanced chemiluminescence (CL) system supplemented with DMSO-TBAC (Dimethyl sulfoxide-tetrabutyl-ammonium chloride) solution for extraction of released O2^.- from tissues, as described previously (11). Superoxide levels were calculated from the standard curve generated by the xanthine/xanthine oxidase reaction (8).

SNK6 xenograft [5] = experiment: Mouse survival, Kaplan–Meier analysis; type: in vivo; details: nude mice, intratumoral 50 µM peptide every 2 days from day ~18, compared with CTL group, n = 9
Description: Statistical analysis. The data was given as mean ± SEM; all of the experiments were performed at least in quadruplicate unless otherwise indicated. One-way ANOVA followed by the Bonferroni post hoc test was used to determine statistical significance of different groups. The mouse survival curve was determined through Kaplan-Meier survival analysis using SPSS 22 software, and a P value < 0.05 was considered significant (8).

Zta = details: SNK6 xenograft, nude mice; intratumoral 50 µM peptide every 2 days from day ~18; tissue day 50; IHC vs CTL; n = 3
Description: To measure malignant SNK6 xenograft growth, 100 µl of 1 × 10^5 SNK6 cells in PBS were mixed with 100 µl growth factor-reduced basement membrane matrix (Matrigel™, BD Biosciences) resulting in 200 µl of solution that was injected subcutaneously along the mouse flank at each intended tumor site. Tumor size was measured using a digital caliper and volume was calculated, and mice were randomly divided into four groups (n = 9 per group) when the tumor volume reached 50–100 mm^3 on day ~18 after tumor inoculation and given treatment as follows: Group 1 (control (CTL)) was intratumorally injected with HBSS buffer (5.33 mM KCl, 0.44 mM KH2PO4, 138 mM NaCl, 4 mM NaHCO3, 0.3 mM Na2HPO4, and 5.6 mM glucose, pH 7.3) containing 0.05% DMSO; Group 2 (Tf-D-HKN15) received HBSS buffer containing 0.05% DMSO with 50 µM Tf-D-HKN15 peptides; Group 3 (Tf-D-HKC15) received HBSS buffer containing 0.05% DMSO with 50 µM Tf-D-HKC15 peptides; Group 4 (Tf-D-HKC8) received HBSS buffer containing 0.05% DMSO with 50 µM Tf-D-HKC8 peptides. […] Beginning on the day of inoculation, mouse weight and tumor volume were monitored every 2 days. Mice were monitored for changes in body weight and sacrificed when values fell below 20% of their initial weight; the survival curve was calculated and the final tumor tissues were isolated for biomedical analysis. […]

Substance	peptide delivered into SNK6 cells (delivery efficiency) (SNK6 cells [1]) [%]	ROS formation (SNK6 cells [2]) [%]	ABCB1 mRNA (ABCB1) [%]	intracellular ATP generation (SNK6 cells [3]) [%]	EBV Zta protein levels in tumor (EBV Zta) [%]	EBV EA-D protein in tumor (EBV EA-D) [%]	P-gp protein in tumor (P-gp) [%]	superoxide anion release from tumor (SNK6 xenograft [4]) [%]	mouse survival (SNK6 xenograft [5]) [%]	Zta gene expression on tumor tissues (IHC) (Zta) [%]
HAIYPRH-ITAVAKRLQQAQKEN [Tf-D-HKC15]	35.6	165	58	61	65	61	48	203	197	64
HAIYPRH-LQQAQKEN [Tf-D-HKC8]	53.4	229	27	30	32	38	17	297	335	28
